According to the supplement of paper PMC4858399:
Where a name gives a salt, the structure may show the parent alone.

Columns and labels:
Conditions in all cases: exposure time 48 h
[1] = tested on: Caenorhabditis elegans N2; experiment: AC50 for larval growth inhibition (Hill fit); higher = less potent
In short: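 Synchronised C. elegans N2 L1 larvae (50 per well, 96-well plates) were grown for 48 h at 20°C in K-medium with killed OP50, 1% DMSO and 0.5–200 µM chemical. The COPAS Biosort measured each worm's size as extinction, which was log-transformed and averaged per well. AC50 came from a constrained Hill fit by weighted genetic-algorithm regression on wells with at least 10 worms. Out-of-range values are censored.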

[2] = tested on: Caenorhabditis elegans N2; experiment: mean nematode size ln(EXT) after 48 h, plate-adjusted (DMSO control set to 6) (ln(EXT), control-adjusted); higher = larger nematodes / less growth inhibition
In short: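 Each treatment used 4–6 wells of 50 synchronised C. elegans N2 L1 larvae, kept for 48 h at 20°C in K-medium with killed OP50, 1% DMSO and 0.5–200 µM chemical. Debris was excluded by a growth model after the Biosort measured per-worm extinction. Mean size per well came from natural-logged values and was plate-adjusted. That adjustment subtracted the vehicle control mean and then added 6.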

[3] = tested on: Caenorhabditis elegans N2; experiment: lowest effective concentration for larval growth inhibition (size below effect threshold); higher = less potent
In short: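 C. elegans N2 L1 larvae (50 per 96-well) were grown 48 h at 20°C in K-medium with killed bacteria, 1% DMSO and 0.5, 1, 5, 10, 50, 100 or 200 µM chemical. The Biosort measured per-worm extinction as size, and these were log-transformed into well means. The lowest effective concentration is the first dose where the plate-adjusted mean size drops under the 5.665 threshold and stays under it at higher doses.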

Row | Compound | AC50 for larval growth inhibition [1] [µM] | mean nematode size ln(EXT) (ln) ([2]; 0.5 µM) | mean nematode size ln(EXT) (ln) ([2]; 1 µM) | mean nematode size ln(EXT) (ln) ([2]; 5 µM) | mean nematode size ln(EXT) (ln) ([2]; 10 µM) | mean nematode size ln(EXT) (ln) ([2]; 50 µM) | mean nematode size ln(EXT) (ln) ([2]; 100 µM) | mean nematode size ln(EXT) (ln) ([2]; 200 µM) | lowest effective concentration [3] [µM]
1 | CCOS(=O)(=O)OCC [Diethyl sulfate] | 55 | 5.87 | 5.85 | 5.83 | 5.88 | 5.88 | 4.98 | 5.42 | 100
2 | CSC(=O)c1c(C(F)F)nc(C(F)(F)F)c(C(=O)SC)c1CC(C)C [Dithiopyr] | 66.4 | 6.12 | 6.03 | 6.04 | 5.65 | 4.72 | 4.61 | 3.44 | 10
3 | CC/C(=C(/CC)c1ccc(O)cc1)c1ccc(O)cc1 [Diethylstilbestrol (DES)] | 87 | 6 | 6 | 5.97 | 5.96 | 5.99 | 5.73 | 5.61 | 200
4 | Cc1c(C(=O)O)c(O)cc2c1C(=O)c1c(O)c([C@@H]3O[C@H](CO)[C@@H](O)[C@H](O)[C@H]3O)c(O)c(O)c1C2=O [Carminic acid] | 115 | 5.97 | 5.92 | 5.91 | 5.96 | 5.97 | 5.46 |  | 100
5 | C=C(C)C(=O)[O][Sn]([CH2]CCC)([CH2]CCC)[CH2]CCC [Stannane, tributyl(2-methyl-1-oxo-2-propenyl)oxy-] | 0.511 | 4.73 | 4.66 | 3.93 | 3.57 | 3.8 | 3.85 | 3.56 | ≤ 0.5
6 | CN(C)c1ccc(Cc2ccc(N(C)C)cc2)cc1 [4,4'-methylenebis(N,N-dimethylaniline)] | 66.3 | 5.92 | 5.8 | 5.81 | 5.86 | 5.74 | 5.17 | 5.04 | 100
7 | CCN(CC)C(=O)C(C)Oc1cccc2ccccc12 (configuration not stated) [Napropamide] | 97.3 | 5.97 | 5.95 | 5.93 | 6 | 6.01 | 5.62 | 5.43 | 100
8 | CCCN(CCC)c1c([N+](=O)[O-])cc(C(F)(F)F)c(N)c1[N+](=O)[O-] [Prodiamine] | > 200 | 6.07 | 6.18 | 6.02 | 5.75 | 5.99 | 5.92 | 5.1 | 200
9 | CO/N=C(/C1=NOCCO1)c1ccccc1Oc1ncnc(Oc2ccccc2Cl)c1F [Fluoxastrobin] | > 200 | 5.86 | 5.94 | 6.05 | 6.07 | 5.65 | 5.6 | 5.12 | 50
10 | Nc1cc2c3c(c1)C(c1ccccc1)=N[C@@H](NC(=O)c1cccnc1)C(=O)N3CC2 | > 200 | 5.78 | 5.74 | 5.7 | 5.73 | 5.63 | 5.62 | 5.61 | 50
11 | C/C=C/c1ccc(OC)cc1 [(E)-Anethole] | > 200 | 6.06 | 5.98 | 6.01 | 6.06 | 5.97 | 5.96 | 5.49 | 200
12 | CCC(CC)Nc1c([N+](=O)[O-])cc(C)c(C)c1[N+](=O)[O-] [Pendimethalin] | > 200 | 5.89 | 5.93 | 5.86 | 5.77 | 5.86 | 6.13 | 5.44 | 200
13 | O=S(=O)(O)C(F)(F)C(F)(F)C(F)(F)C(F)(F)C(F)(F)C(F)(F)C(F)(F)C(F)(F)F [Heptadecafluorooctanesulfonic acid potassium salt] | 11.4 | 5.46 | 5.57 | 5.12 | 4.63 | 3.8 | 3.62 | 3.47 | ≤ 0.5
14 | C=CCOC(=O)c1ccccc1C(=O)OCC=C [Diallyl phthalate] | > 200 | 5.88 | 5.92 | 5.94 | 5.96 | 5.88 | 5.84 | 5.65 | 200
15 | FC(F)(F)C(F)(F)C(F)(F)C(F)(F)C(F)(F)C(F)(F)CCI [1H,1H,2H,2H-Perfluorooctyl iodide] | 190 | 5.99 | 5.98 | 5.95 | 5.96 | 5.94 | 5.86 | 4.39 | 200
16 | C1=Cc2cccc3cccc1c23 [Acenaphthylene] | > 200 | 5.93 | 5.96 | 5.94 | 5.98 | 5.92 | 5.83 | 5.37 | 200
17 | C[C@]12C=CC(=O)C=C1CC[C@@H]1[C@@H]2C(=O)C[C@@]2(C)[C@H]1CC[C@]2(O)C(=O)CO [Prednisone] | 52.4 | 6.09 | 5.82 | 5.85 | 5.87 | 5.86 | 5.47 | 5.62 | 100
